In US9586961B2, “Homopiperazine derivatives as protein tyrosine kinase inhibitors and pharmaceutical use thereof” (LEO PHARMA A/S, priority 2010, dated 2017):

How the values were obtained:
Type in all cases: biochemical
[1] = molecular target: T1, JAK1 (Homo sapiens, UniProt P23458); assay: JAK1 kinase assay (HTRF, inhibition of phosphorylation of a synthetic peptide); conditions: catalytic domain aa 850-1154, GST-tag; 7 μM ATP (Km); read-out: JAK1 kinase inhibitory activity (EC50)
T1 construct: JAK1 (aa 850-1154) and TYK2 (aa 871-1187) are expressed with an N-terminally fused GST-tag; GST (N); purchased Carna Biosciences, Inc; host or cells: baculovirus expression system
Method: (§1) JAK1, JAK2, JAK3 and TYK2 Kinase Assays:
(§2) Human baculovirus-expressed JAK1, 2, 3 and TYK2 were purchased from Carna Biosciences, Inc. All four purified enzymes contain only the catalytic domain. JAK1 (aa 850-1154) and TYK2 (aa 871-1187) are expressed with an N-terminally fused GST-tag, and JAK2 and JAK3 with an N-terminally fused His-tag. Inhibition of phosphorylation of a synthetic peptide was measured in an HTRF-based assay using the TK substrate-Biotin from the CisbioHTRFKinEASE TK kit. First, 2 μl of TK solution (TK substrate-biotin in kinase buffer [1× enzymatic buffer from HTRFKinEASE TK kit, 1 mM DTT]) is added to a plate containing 1 μl prediluted compound (final assay concentration DMSO: 0.75%). Then, 5 μl kinase-ATP mix (prepared in kinase buffer) is added to the wells and the plates are incubated at RT for 20-30 min. For all four kinases a concentration of ATP that corresponded to the Km for ATP was used. The final concentrations of buffers, substrate, kinase and ATP were: JAK1: 50 mMHepes buffer pH 7.0, 0.01% BSA, 10 mM MgCl2, 1 mM DTT, 7 μM ATP, 50 nMSEB, 1 μM TK Substrate-Biotin and 5 ng JAK1; JAK2: 50 mM Hepes buffer pH 7.0, 0.01% BSA, 5 mM MgCl2, 1 mM DTT, 4 μM ATP, 1 μM TK Substrate-Biotin and 0.1 ng JAK2; JAK3: 50 mMHepes buffer pH 7.0, 0.01% BSA, 5 mM MgCl2, 1 mM DTT, 2 μM ATP, 1 μM TK Substrate-Biotin and 0.3 ng JAK3; TYK2: 50 mMHepes buffer pH 7.0, 0.01% BSA, 5 mM MgCl2, 1 mM DTT, 13 μM ATP, 50 nMSEB, 1 μM TK Substrate-Biotin and 0.8 ng TYK2. Thereafter, the kinase reaction is stopped by adding 4 μl detection mix (final concentrations: 50 mM Hepes buffer pH 7.0, 0.01% BSA, 0.8 M KF, 20 mM EDTA, 42 nM Streptavidin-XL665 and 1:400 STKAbCryptate) and the plates are incubated overnight in the dark. The HTRF signal is read using an Envision plate reader.

[2] = molecular target: T2, JAK2 (Homo sapiens, UniProt O60674); assay: JAK2 kinase assay (HTRF, inhibition of phosphorylation of a synthetic peptide); conditions: catalytic domain, His-tag; 4 μM ATP (Km); read-out: JAK2 kinase inhibitory activity (EC50)
T2 construct: All four purified enzymes contain only the catalytic domain; His (N); purchased Carna Biosciences, Inc; host or cells: baculovirus expression system
Method: as §1, §2

[3] = molecular target: T3, JAK3 (Homo sapiens, UniProt P52333); assay: JAK3 kinase assay (HTRF, inhibition of phosphorylation of a synthetic peptide); conditions: catalytic domain, His-tag; 2 μM ATP (Km); read-out: JAK3 kinase inhibitory activity (EC50)
T3 construct: All four purified enzymes contain only the catalytic domain; His (N); purchased Carna Biosciences, Inc; host or cells: baculovirus expression system
Method: as §1, §2

T2 sequence (O60674 849-1124 limits assumed): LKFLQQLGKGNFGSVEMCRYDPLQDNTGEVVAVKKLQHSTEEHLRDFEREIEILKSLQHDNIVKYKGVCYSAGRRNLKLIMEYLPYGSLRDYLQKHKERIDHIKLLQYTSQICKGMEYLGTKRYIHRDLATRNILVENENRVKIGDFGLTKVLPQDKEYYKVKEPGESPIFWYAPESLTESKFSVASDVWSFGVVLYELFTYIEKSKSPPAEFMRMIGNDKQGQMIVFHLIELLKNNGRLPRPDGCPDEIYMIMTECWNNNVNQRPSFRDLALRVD
T1 sequence (P23458 850-1154): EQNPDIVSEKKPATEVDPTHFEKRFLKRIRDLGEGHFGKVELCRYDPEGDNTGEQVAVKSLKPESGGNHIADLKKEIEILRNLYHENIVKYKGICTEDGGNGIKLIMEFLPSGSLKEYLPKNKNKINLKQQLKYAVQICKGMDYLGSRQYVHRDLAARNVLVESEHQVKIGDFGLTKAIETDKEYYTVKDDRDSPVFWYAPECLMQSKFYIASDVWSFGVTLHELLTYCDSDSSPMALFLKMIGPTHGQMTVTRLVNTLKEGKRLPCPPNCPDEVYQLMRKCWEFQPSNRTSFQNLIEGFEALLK
T3 sequence (P52333 822-1111 limits assumed): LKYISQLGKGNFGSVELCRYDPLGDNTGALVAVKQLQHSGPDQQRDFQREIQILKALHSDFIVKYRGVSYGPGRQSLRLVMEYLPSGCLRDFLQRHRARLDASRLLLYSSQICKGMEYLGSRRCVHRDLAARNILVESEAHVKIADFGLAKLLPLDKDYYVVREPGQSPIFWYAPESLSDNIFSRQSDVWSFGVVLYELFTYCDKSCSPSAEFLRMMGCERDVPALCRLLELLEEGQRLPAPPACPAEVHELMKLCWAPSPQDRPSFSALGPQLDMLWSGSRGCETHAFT

| Structure (SMILES) | EC50 [1] [nM] | EC50 [2] [nM] | EC50 [3] [nM] |
| --- | --- | --- | --- |
| O=C(c1cnco1)N1CCCN(c2ncnc3[nH]ccc23)CC12CC2 [Example 156, oxazol-5-yl-[5-(7H-pyrrolo[2,3-d]pyrimidin-4-yl)-5,9-diazaspiro[2.6]nonan-9-yl]methanone] | 100 to 1000 | 100 to 1000 | 100 to 1000 |
| O=C(c1cn[nH]c1)N1CCN(c2ncnc3[nH]ccc23)CC2(CC2)C1 [Example 157, 1H-pyrazol-4-yl-[5-(7H-pyrrolo[2,3-d]pyrimidin-4-yl)-5,8-diazaspiro[2.6]nonan-8-yl]methanone] | 100 to 1000 | 100 to 1000 | 100 to 1000 |
| O=C(Cc1ccc(F)cc1)N1CCCN(c2ncnc3[nH]ccc23)CC12CC2 [Example 159, 2-(4-fluorophenyl)-1-[5-(7H-pyrrolo[2,3-d]pyrimidin-4-yl)-5,9-diazaspiro[2.6]nonan-9-yl]ethanone] | 100 to 1000 | < 100 | > 1000 |
| O=C(c1cncnc1)N1CCN(c2ncnc3[nH]ccc23)CC2(CC2)C1 [Example 160, pyrimidin-5-yl-[5-(7H-pyrrolo[2,3-d]pyrimidin-4-yl)-5,8-diazaspiro[2.6]nonan-8-yl]methanone] | > 1000 | 100 to 1000 | > 1000 |
| O=C(c1cncnc1)N1CCCN(c2ncnc3[nH]ccc23)CC12CC2 [Example 161, pyrimidin-5-yl-[5-(7H-pyrrolo[2,3-d]pyrimidin-4-yl)-5,9-diazaspiro[2.6]nonan-9-yl]methanone] | 100 to 1000 | 100 to 1000 | > 1000 |
| N#Cc1ccccc1C(=O)N1CCCN(c2ncnc3[nH]ccc23)CC12CC2 [Example 162, 2-[5-(7H-pyrrolo[2,3-d]pyrimidin-4-yl)-5,9-diazaspiro[2.6]nonane-9-carbonyl]benzonitrile] | > 1000 | 100 to 1000 | > 1000 |
| O=C(c1cccc(O)n1)N1CCN(c2ncnc3[nH]ccc23)CC2(CC2)C1 [Example 163, (6-hydroxy-2-pyridyl)-[5-(7H-pyrrolo[2,3-d]pyrimidin-4-yl)-5,8-diazaspiro[2.6]nonan-8-yl]methanone] | 100 to 1000 | 100 to 1000 | > 1000 |
| O=C(c1cccc(O)n1)N1CCCN(c2ncnc3[nH]ccc23)CC12CC2 [Example 164, (6-hydroxy-2-pyridyl)-[5-(7H-pyrrolo[2,3-d]pyrimidin-4-yl)-5,9-diazaspiro[2.6]nonan-9-yl]methanone] | 100 to 1000 | 100 to 1000 | > 1000 |
| O=C(c1ccncn1)N1CCN(c2ncnc3[nH]ccc23)CC2(CC2)C1 [Example 165, pyrimidin-4-yl-[5-(7H-pyrrolo[2,3-d]pyrimidin-4-yl)-5,8-diazaspiro[2.6]nonan-8-yl]methanone] | > 1000 | 100 to 1000 | > 1000 |
| O=C(c1ccncn1)N1CCCN(c2ncnc3[nH]ccc23)CC12CC2 [Example 166, pyrimidin-4-yl-[5-(7H-pyrrolo[2,3-d]pyrimidin-4-yl)-5,9-diazaspiro[2.6]nonan-9-yl]methanone] | < 100 | < 100 | 100 to 1000 |
| O=C(Cc1ccccn1)N1CCN(c2ncnc3[nH]ccc23)CC2(CC2)C1 [Example 167, 2-(2-pyridyl)-1-[5-(7H-pyrrolo[2,3-d]pyrimidin-4-yl)-5,8-diazaspiro[2.6]nonan-8-yl]ethanone] | 100 to 1000 | 100 to 1000 | > 1000 |
| Cc1nccnc1C(=O)N1CCN(c2ncnc3[nH]ccc23)CC2(CC2)C1 [Example 168, (3-methylpyrazin-2-yl)-[5-(7H-pyrrolo[2,3-d]pyrimidin-4-yl)-5,8-diazaspiro[2.6]nonan-8-yl]methanone] | > 1000 | > 1000 | > 1000 |
| Cc1cncc(C(=O)N2CCN(c3ncnc4[nH]ccc34)CC3(CC3)C2)n1 [Example 169, (6-methylpyrazin-2-yl)-[5-(7H-pyrrolo[2,3-d]pyrimidin-4-yl)-5,8-diazaspiro[2.6]nonan-8-yl]methanone] | > 1000 | 100 to 1000 | > 1000 |
| Cc1noc(C)c1C(=O)N1CCN(c2ncnc3[nH]ccc23)CC2(CC2)C1 [Example 170, (3,5-dimethylisoxazol-4-yl)-[5-(7H-pyrrolo[2,3-d]pyrimidin-4-yl)-5,8-diazaspiro[2.6]nonan-8-yl]methanone] | > 1000 | > 1000 | > 1000 |
| Cc1cc(C(=O)N2CCN(c3ncnc4[nH]ccc34)CC3(CC3)C2)ccn1 [Example 171, (2-methyl-4-pyridyl)-[5-(7H-pyrrolo[2,3-d]pyrimidin-4-yl)-5,8-diazaspiro[2.6]nonan-8-yl]methanone] | 100 to 1000 | > 1000 | > 1000 |
| Cc1cc(C(=O)N2CCCN(c3ncnc4[nH]ccc34)CC23CC3)ccn1 [Example 172, (2-methyl-4-pyridyl)-[5-(7H-pyrrolo[2,3-d]pyrimidin-4-yl)-5,9-diazaspiro[2.6]nonan-9-yl]methanone] | 100 to 1000 | 100 to 1000 | > 1000 |
| O=C(Cc1ccccc1Cl)N1CCN(c2ncnc3[nH]ccc23)CC2(CC2)C1 [Example 173, 2-(2-chlorophenyl)-1-[5-(7H-pyrrolo[2,3-d]pyrimidin-4-yl)-5,8-diazaspiro[2.6]nonan-8-yl]ethanone] | 100 to 1000 | < 100 | 100 to 1000 |
| O=C(Cc1ccccc1Cl)N1CCCN(c2ncnc3[nH]ccc23)CC12CC2 [Example 174, 2-(2-chlorophenyl)-1-[5-(7H-pyrrolo[2,3-d]pyrimidin-4-yl)-5,9-diazaspiro[2.6]nonan-9-yl]ethanone] | 100 to 1000 | 100 to 1000 | > 1000 |
| Cc1cc(C(=O)N2CCN(c3ncnc4[nH]ccc34)CC3(CC3)C2)no1 [Example 175, (5-methylisoxazol-3-yl)-[5-(7H-pyrrolo[2,3-d]pyrimidin-4-yl)-5,8-diazaspiro[2.6]nonan-8-yl]methanone] | 100 to 1000 | 100 to 1000 | 100 to 1000 |
| O=C(c1ccc(Cl)cc1)N1CCN(c2ncnc3[nH]ccc23)CC2(CC2)C1 [Example 176, (4-chlorophenyl)-[5-(7H-pyrrolo[2,3-d]pyrimidin-4-yl)-5,8-diazaspiro[2.6]nonan-8-yl]methanone] | 100 to 1000 | < 100 | 100 to 1000 |
| O=C(c1ccno1)N1CCN(c2ncnc3[nH]ccc23)CC2(CC2)C1 [Example 177, isoxazol-5-yl-[5-(7H-pyrrolo[2,3-d]pyrimidin-4-yl)-5,8-diazaspiro[2.6]nonan-8-yl]methanone] | 100 to 1000 | 100 to 1000 | 100 to 1000 |
| O=C(c1ccccc1Cl)N1CCCN(c2ncnc3[nH]ccc23)CC12CC2 [Example 178, (2-chlorophenyl)-[5-(7H-pyrrolo[2,3-d]pyrimidin-4-yl)-5,9-diazaspiro[2.6]nonan-9-yl]methanone] | 100 to 1000 | 100 to 1000 | > 1000 |
| O=C(c1cccc(Cl)c1)N1CCCN(c2ncnc3[nH]ccc23)CC12CC2 [Example 179, (3-chlorophenyl)-[5-(7H-pyrrolo[2,3-d]pyrimidin-4-yl)-5,9-diazaspiro[2.6]nonan-9-yl]methanone] | 100 to 1000 | < 100 | 100 to 1000 |
